According to patent publication US6201006A, “Aromatic amidine derivatives useful as selective thrombin inhibitors” (C & C Research Laboratories, priority 1996, dated 2001):

Legend:
[1] = biological target: T1, human thrombin (Homo sapiens, UniProt P00734); experiment: Inhibitory activity for thrombin (chromogenic substrate hydrolysis, 405 nm); type: biochemical; conditions: for Selectivity (trypsin/thrombin): IC50 for trypsin divided by IC50 for thrombin; for IC50: human thrombin, 20 min, pH 8.0, N-benzoyl-Phe-Val-Arg-p-nitroanilide
T1 construct: purchased Sigma T-6759
How it was run: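 Thrombin: human enzyme (5 units/ml stock, 0.1% BSA) acted for 20 min on N-benzoyl-Phe-Val-Arg-p-nitroanilide in 125 mM NaCl, 50 mM Tris-HCl pH 8.0, with compounds dissolved in 50% methanol. Hydrolysis was read at 405 nm. Selectivity index was trypsin IC50 divided by thrombin IC50.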

[2] = test system: trypsin; experiment: Inhibitory activity for trypsin; type: biochemical
[3] = test system: thrombin time (TT) in rat plasma; experiment: Thrombin time (TT) in rat plasma after oral administration; type: in vivo, SD male rats; conditions: TT after / TT before administration
Protocol: SD male rats weighing 220±20 g which had fasted overnight were used as experimental animals. Blood taken from the hearts of the experimental animals just before administration of the test compound and at 30, 60, 120 and 240 minutes after oral administration of the test compound was mixed with 0.108M sodium citrate in the ratio of 9:1. The mixtures thereby obtained were centrifuged at 15,000 rpm for 5 minutes at 4° C. to separate the plasma, which was stored at -20° C. until the TT was measured by means of the method described below.
200 μl of Owren's buffer was added to 50 μl of the plasma and 100 μl of the diluted plasma thereby obtained was injected into the vial of a coagulometer and then incubated for 2 minutes at 37° C. To each vial was added 100 μl of thrombin at a concentration of 20 U/ml, which had prewarmed at 37° C., to measure the time (TT) until clotting occurred. The ratio of the TT in rat plasma after administration of the test compound to the TT in rat plasma before administration of the test compound was calculated.

Selectivity (trypsin/thrombin) [1]	IC50 [1] [nM]	IC50 [2] [nM]	Structure (SMILES)	Plasma TT ratio after administration to rat ([3]; 100 mg/kg oral)	Plasma TT ratio after administration to rat ([3]; 50 mg/kg oral)	Plasma TT ratio after administration to rat ([3]; 30 mg/kg oral)
35.1	10.6	373	CCn1c(CC[C@@H]2CCCN2C(=O)[C@H]2CCCN2C(C)=O)cc2ccc(C(=N)N)cc21 [Compound 171, 1-ethyl-2-[2-[(S)-1-[((R)-1-acetyl-pyrrolidin-2-yl)carbonyl]pyrrolidin-2-yl]ethyl]indole-6-carboxamidine]	4.23	–	–
25.0	15.3	382	CCn1c(CC[C@@H]2CCCN2C(=O)[C@H]2CCCN2C(=O)C[C@H](N)C(N)=O)cc2ccc(C(=N)N)cc21 [Compound 160, 1-ethyl-2-[2-[(S)-1-[[(R)-1-((S)-3-amino-3-carbamoylpropanoyl)pyrrolidin-2-yl]carbonyl]pyrrolidin-2-yl]ethyl]indole-6-carboxamidine]	–	2.30	–
25.0	27	–	CCOC(=O)CN1CCC[C@@H]1C(=O)N1CCC[C@H]1CCc1cc2ccc(C(=N)N)cc2n1CC [Compound 86, ethyl 2-[(R)-2-[[(S)-2-[2-(6-amidino-1-ethylindol-2-yl)ethyl]pyrrolidinyl]carbonyl]pyrrolidinyl]acetate]	5.19	4.51	1.49
14.5	12.3	–	CCn1c(CCC2CCCN2C(=O)C2CCCN2C(CCO)C(=O)O)cc2ccc(C(=N)N)cc21 [Compound 118, 2-[(R)-2-[[(S)-2-[2-(6-amidino-1-ethylindol-2-yl)ethyl]pyrrolidinyl]carbonyl]pyrrolidinyl]-4-hydroxy-butanoic acid]	–	8.80	–
20.7	19.3	–	CCOC(=O)[C@@H](N)CC(=O)N1CCC[C@@H]1C(=O)N1CCC[C@H]1CCc1cc2ccc(C(=N)N)cc2n1CC [Compound 159, ethyl 4-[(R)-2-[[(S)-2-[2-(6-amidino-1-ethylindol-2-yl)-ethyl]pyrrolidinyl]carbonyl]pyrrolidinyl]-(S)-2-amino-4-oxobutanoate]	–	6.23	–
–	21.7	–	CCn1c(CC[C@@H]2CCCN2C(=O)[C@H]2CCCN2CCCC(=O)O)cc2ccc(C(=N)N)cc21 [Compound 127, 4-[(R)-2-[[(S)-2-[2-(6-amidino-1-ethylindol-2-yl)ethyl]pyrrolidinyl]carbonyl]pyrrolidinyl]butanoic acid]	–	8.00	–
–	40.5	–	CCOC(=O)CCCN1CCC[C@@H]1C(=O)N1CCC[C@H]1CCc1cc2ccc(C(=N)N)cc2n1CC [Compound 126, ethyl 4-[(R)-2-[[(S)-2-[2-(6-amidino-1-ethylindol-2-yl)ethyl]pyrrolidinyl]carbonyl]pyrrolidinyl]butanoate]	–	5.40	–
48.9	5.21	–	CCn1c(CC[C@@H]2CCCN2C(=O)[C@H]2CCCN2C(=O)C[C@H](N)C(=O)O)cc2ccc(C(=N)N)cc21 [Compound 161, 4-[(R)-2-[[(S)-2-[2-(6-amidino-1-ethylindol-2-yl)ethyl]pyrrolidinyl]carbonyl]pyrrolidinyl]-(S)-2-amino-4-oxobutanoic acid]	–	7.62	–
24.7	11.6	287	CCn1c(CC[C@@H]2CCCN2C(=O)[C@H]2CCCN2C(=O)CCN)cc2ccc(C(=N)N)cc21 [Compound 155, 1-ethyl-2-[2-[(S)-1-[[(R)-1-(3-aminopropanoyl)pyrrolidin-2-yl]carbonyl]pyrrolidin-2-yl]ethyl]indole-6-carboxamidine]	7.36	3.93	–
–	10.4	–	CCn1c(CC[C@@H]2CCCN2C(=O)[C@H]2CCCN2C(=O)[C@@H](N)CC(=O)O)cc2ccc(C(=N)N)cc21 [Compound 149, 4-[(R)-2-[[(S)-2-[2-(6-amidino-1-ethylindol-2-yl)ethyl]pyrrolidinyl]carbonyl]pyrrolidinyl]-(S)-3-amino-4-oxobutanoic acid]	–	9.24	–
–	–	–	CCOC(=O)CN1CCC[C@@H]1C(=O)N1CCC[C@H]1CCc1cc2ccc(C(=N)NC(=O)OC(C)C)cc2n1CC [Compound 270, ethyl 2-[(R)-2-[[(S)-2-[2-[1-ethyl-6-[imino[(methylethoxy)carbonylamino]methyl]indol-2-yl]ethyl]pyrrolidinyl]carbonyl]pyrrolidinyl]acetate]	–	4.30	1.46
